Experimental findings from BindingDB's records for doi:10.1016/0960-894X(96)00438-6 (1996) are described below.

Broadly, the IC50 is the midpoint of a concentration-inhibition curve.

This test is described as follows: In vitro inhibition of thrombin-induced human gel-filtered platelet aggregation.
Consider `O=C(NCCc1nnn[nH]1)C1CCCN(C(=O)CCC2CCNCC2)C1` (stereo not given) [1-(3-Piperidin-4-yl-propionyl)-piperidine-3-carboxylic acid [2-(1H-tetrazol-5-yl)-ethyl]-amide], for which inhibition was half-maximal at 40000 nM (IC50).

Take `O=C(O)C(O)CNC(=O)[C@@H]1CCCN(C(=O)CCC2CCNCC2)C1` (stereo partly drawn) [2-Hydroxy-3-{[(R)-1-(3-piperidin-4-yl-propionyl)-piperidine-3-carbonyl]-amino}-propionic acid]: inhibition was half-maximal at 800 nM (IC50). This IC50 lies about 50-fold lower than the previous one. In turn, `CC(CNC(=O)C1CCCN(C(=O)CCC2CCNCC2)C1)C(=O)O` (stereo not given) [2-Methyl-3-{[1-(3-piperidin-4-yl-propionyl)-piperidine-3-carbonyl]-amino}-propionic acid] gave an IC50 of over 10000 nM.

`COC(=O)C(CC(=O)O)NC(=O)C1CCCN(C(=O)CCC2CCNCC2)C1` (stereo not given) [2-{[1-(3-Piperidin-4-yl-propionyl)-piperidine-3-carbonyl]-amino}-succinic acid 1-methyl ester] showed an IC50 of 1000 nM. With `O=C(O)CCNC(=O)C1CCCN(C(=O)OCC2CCNCC2)C1` (stereo not given) [3-(2-Carboxy-ethylcarbamoyl)-piperidine-1-carboxylic acid piperidin-4-ylmethyl ester], it took 5000 nM to reach half-maximal inhibition (IC50). This IC50 is about 5-fold higher than that of the molecule before. The result for `CN(CCC(=O)O)C(=O)C1CCCN(C(=O)CCC2CCNCC2)C1` (stereo not given) [3-{Methyl-[1-(3-piperidin-4-yl-propionyl)-piperidine-3-carbonyl]-amino}-propionic acid] reads 28000 nM; that for `O=C(O)C1CCCC(NC(=O)C2CCCN(C(=O)CCC3CCNCC3)C2)C1` (stereo not given) [3-{[1-(3-Piperidin-4-yl-propionyl)-piperidine-3-carbonyl]-amino}-cyclohexanecarboxylic acid], over 50000 nM; that for `O=C(O)C[C@H](NC(=O)[C@@H]1CCCN(C(=O)CCC2CCNCC2)C1)c1ccc2c(c1)OCO2` [(S)-3-Benzo[1,3]dioxol-5-yl-3-{[(R)-1-(3-piperidin-4-yl-propionyl)-piperidine-3-carbonyl]-amino}-propionic acid], 20 nM. The result for `O=C(O)C[C@H](NC(=O)[C@@H]1CCCN(C(=O)CCC2CCNCC2)C1)c1cccs1` [(S)-3-{[(R)-1-(3-Piperidin-4-yl-propionyl)-piperidine-3-carbonyl]-amino}-3-thiophen-2-yl-propionic acid] reads 90 nM. The result for `O=C(O)C[C@@H](C#Cc1ccccc1)NC(=O)[C@@H]1CCCN(C(=O)CCC2CCNCC2)C1` [(S)-5-Phenyl-3-{[(R)-1-(3-piperidin-4-yl-propionyl)-piperidine-3-carbonyl]-amino}-pent-4-ynoic acid] reads 80 nM.
